Assay results taken from article PMC7504721, “Targeting the Initiator Protease of the Classical Pathway of Complement Using Fragment-Based Drug Discovery” (Molecules, 2020).

Biological target: T1, C1r proenzyme (Homo sapiens, UniProt P00736)
T1 construct: purchased Complement Technology (CompTech)
T1 sequence (P00736 18-705): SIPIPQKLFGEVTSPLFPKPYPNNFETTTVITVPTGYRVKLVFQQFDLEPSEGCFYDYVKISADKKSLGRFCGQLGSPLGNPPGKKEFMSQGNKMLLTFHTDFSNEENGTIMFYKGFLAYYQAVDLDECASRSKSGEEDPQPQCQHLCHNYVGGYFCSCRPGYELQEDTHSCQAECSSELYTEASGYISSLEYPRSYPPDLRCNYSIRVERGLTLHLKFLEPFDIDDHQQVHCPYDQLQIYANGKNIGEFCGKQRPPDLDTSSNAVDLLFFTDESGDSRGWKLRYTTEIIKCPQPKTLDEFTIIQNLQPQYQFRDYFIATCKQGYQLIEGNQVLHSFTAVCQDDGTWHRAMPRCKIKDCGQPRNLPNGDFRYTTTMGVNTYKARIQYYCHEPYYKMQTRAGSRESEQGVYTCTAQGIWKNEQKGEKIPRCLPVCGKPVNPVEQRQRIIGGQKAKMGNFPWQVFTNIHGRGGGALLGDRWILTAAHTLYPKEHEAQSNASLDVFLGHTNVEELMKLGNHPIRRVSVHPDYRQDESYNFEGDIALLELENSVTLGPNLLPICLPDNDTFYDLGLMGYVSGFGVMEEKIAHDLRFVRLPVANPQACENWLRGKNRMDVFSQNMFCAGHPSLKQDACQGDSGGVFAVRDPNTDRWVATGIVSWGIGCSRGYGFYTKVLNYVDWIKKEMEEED
Assay: C1r proenzyme activation (autoactivation) assay with Z-Gly-Arg-sBzl substrate
Format: biochemical
Details: 10 mM compound, 37 °C, 1 h
Experimental: Figure 6 CMP-1696 structure activity relationship. (A) CMP-1696 was redocked onto C1r-CCP2-SP (PDB: 1MD8, grey surface representation) and the top nine scored poses are shown. All CMP-1696 poses dock into the S1 subsite (cyan) near the catalytic triad (blue). (B) C1r autoactivation assay. C1r proenzyme undergoes time-dependent autoactivation at 37 °C. Autoactivation was measured using a synthetic substrate for C1r enzyme. The reaction progress of vehicle control (dashed line) or in the presence of 10 mM CMP-1696 (solid line) was monitored for 1 h. (C) Molecular dynamics (MD) simulations of CMP-1696/C1r-CCP2-SP. Root mean square deviation (RMSD) in nm for each of the CMP-1696 poses measured over the 10 ns molecular dynamics simulation. (D) MM/PBSA energy calculations for each pose in the 10 ns MD simulations indicate that pose 1 is the most energetically favorable. […]
Individual stock solutions of 1 mM of Z-Gly-Arg-sBzl (MP Biomedicals, Irvine, CA, USA) and 5,5′-Dithiobis-(2-nitrobenzoic acid) (DTNB) (Sigma-Aldrich, St. Louis, MO, USA) were made by dissolving powder in DMSO to give 10 mM stocks of each compound, which were then diluted to 1 mM in assay buffer (20 mM HEPES pH 7.3, 140 mM NaCl, 0.005% (v/v) Tween-20, 2 mM CaCl2). […] Plates were read at 450 nm using an EnSight multimode plate reader (Perkin-Elmer, Waltham, MA, USA) and the reaction progress was tracked for 1 h.

## COCc1nc(-c2ccc(OC3CNC3)cc2)no1 [CMP-1696]
  inhibition of autocatalysis of C1r proenzyme: directly inhibited
